In patent US12522597B2, “Methods and compositions for modulating splicing” (Skyhawk Therapeutics, Inc., priority 2019, dated 2026):

What was measured:
MDR1 = assay: MDCK-MDR1 permeability assay (BBB penetration potential); format: in vitro ADME; conditions: dog; for efflux ratio at 120 min, 5 μM: MDCK-MDR1, pH 7.4, MDCK-MDR1: Efflux; for Papp A→B at 120 min, 5 μM: MDCK-MDR1, pH 7.4, MDCK-MDR1: Papp A-B; for Papp B→A at 120 min, 5 μM: MDCK-MDR1, pH 7.4, MDCK-MDR1: Papp B-A
Protocol: (§1) Each determination is performed in duplicate. […] Analytical conditions are outlined below.

[1] = test system: MDR1-MDCK cell monolayers; assay: as above; format: in vitro ADME; conditions: dog, MDCK-MDR1, 120 min, 5 μM, pH 7.4
Protocol: as §1

mHTT protein = mHTT protein assay (2B7-MW1, Mesoscale Discovery); format: cell-based, human; conditions: GM04724 (CAG 70/20) Huntington's disease patient lymphoblast cells, 48 hours, 2B7-MW1 MSD; read-out: HTT Potency - Protein EC50 mHTT (average)
Protocol: Compounds are tested on GM04724 (CAG 70/20) Huntington's disease patient lymphoblast cells at doses ranging from 10 μM to 0.6 nM. 4,500 cells/well are seeded in 384 well plates. One plate replica is carried out for parallel viability testing by CellTiter Glo (CTG). Compounds are incubated for 48 hours, mHTT protein levels are assessed by the 2B7-MW1 assay via Mesoscale Discovery (MSD) as previously reported (Macdonald et al., 2014). The antibody pair is comprised of previously characterized monoclonals (2B7 and MW1) interrogating two regions for HTT conformation and biological properties: the N17 domain and the polyQ domain (Baldo et al., 2012; Ko et., 2001). 2B7-MW1 is dependent on subject/animal specific levels of HTT at the time of treatment. 2B7-MW1 is dependent on polyQ expansion (e.g., the higher the expansion the higher the signal) and on mHTT size (e.g., a similar polyQ will give higher signal with smaller HTT size). The viability readout is carried out by CTG according to the manufacturer's instructions.

`Cc1ccc(-c2ccc(-c3ccc(O[C@@H]4C[C@H]5CCC[C@H](N5)[C@@H]4F)nn3)c(O)c2)cn1` (single isomer, unassigned) [67-ENT1] showed an efflux ratio at 120 min, 5 μM (MDR1) of 7, a Papp A→B at 120 min, 5 μM (MDR1) of 4.42 ×10⁻⁶ cm/s and a Papp B→A at 120 min, 5 μM (MDR1) of 29.8 ×10⁻⁶ cm/s. The “MDCK-MDR1: % Recov A-B” value [1] was 44%, the “MDCK-MDR1: % Recov B-A” value [1] was 62% and the EC50 (mHTT protein) was 0.101 to 0.5 µM.
`Cc1ccc(-c2ccc(-c3ccc(O[C@H]4C[C@@H]5CCC[C@@H](N5)[C@H]4F)nn3)c(O)c2)cn1` (single isomer, unassigned) [67-ENT2] showed an efflux ratio at 120 min, 5 μM (MDR1) of 6, a Papp A→B at 120 min, 5 μM (MDR1) of 3.34 ×10⁻⁶ cm/s and a Papp B→A at 120 min, 5 μM (MDR1) of 20.7 ×10⁻⁶ cm/s. For the same compound, the “MDCK-MDR1: % Recov A-B” value [1] was 59%, the “MDCK-MDR1: % Recov B-A” value [1] was 76% and the EC50 (mHTT protein) was 0.101 to 0.5 µM.
In the case of `Oc1cc(-n2ccnn2)ccc1-c1ccc(O[C@@H]2C[C@H]3CCC[C@H](N3)[C@@H]2F)nn1` (single isomer, unassigned) [69-ENT1], the efflux ratio at 120 min, 5 μM (MDR1) is reported as 5, the Papp A→B at 120 min, 5 μM (MDR1) is reported as 9.2 ×10⁻⁶ cm/s and the Papp B→A at 120 min, 5 μM (MDR1) is reported as 47.6 ×10⁻⁶ cm/s. For the same compound, the “MDCK-MDR1: % Recov A-B” value [1] was 89%, the “MDCK-MDR1: % Recov B-A” value [1] was 93% and the EC50 (mHTT protein) was 0.101 to 0.5 µM.
`Oc1cc(-n2ccnn2)ccc1-c1ccc(O[C@H]2C[C@@H]3CCC[C@@H](N3)[C@H]2F)nn1` (single isomer, unassigned) [69-ENT2] gave an efflux ratio at 120 min, 5 μM (MDR1) of 5, a Papp A→B at 120 min, 5 μM (MDR1) of 10.7 ×10⁻⁶ cm/s and a Papp B→A at 120 min, 5 μM (MDR1) of 55.9 ×10⁻⁶ cm/s. The “MDCK-MDR1: % Recov A-B” value [1] was 86%, the “MDCK-MDR1: % Recov B-A” value [1] was 93% and the EC50 (mHTT protein) was 0.101 to 0.5 µM.
`Cc1ncn(-c2ccc(-c3ccc(O[C@@H]4C[C@H]5CCC[C@H](N5)[C@@H]4F)nn3)c(O)c2)n1` (single isomer, unassigned) [70-ENT1] gave an efflux ratio at 120 min, 5 μM (MDR1) of 7, a Papp A→B at 120 min, 5 μM (MDR1) of 6.62 ×10⁻⁶ cm/s and a Papp B→A at 120 min, 5 μM (MDR1) of 44.6 ×10⁻⁶ cm/s. For the same compound, the “MDCK-MDR1: % Recov A-B” value [1] was 93%, the “MDCK-MDR1: % Recov B-A” value [1] was 99% and the EC50 (mHTT protein) was 0.101 to 0.5 µM.
Work on `Cc1ncn(-c2ccc(-c3ccc(O[C@H]4C[C@@H]5CCC[C@@H](N5)[C@H]4F)nn3)c(O)c2)n1` (single isomer, unassigned) [70-ENT2] yielded an efflux ratio at 120 min, 5 μM (MDR1) of 5, a Papp A→B at 120 min, 5 μM (MDR1) of 7.47 ×10⁻⁶ cm/s and a Papp B→A at 120 min, 5 μM (MDR1) of 40.1 ×10⁻⁶ cm/s. For the same compound, the “MDCK-MDR1: % Recov A-B” value [1] was 94%, the “MDCK-MDR1: % Recov B-A” value [1] was 105% and the EC50 (mHTT protein) was 0.101 to 0.5 µM.
`Cc1nc(-c2ccc(-c3ccc(O[C@@H]4C[C@H]5CCC[C@H](N5)[C@@H]4F)nn3)c(O)c2)cs1` (single isomer, unassigned) [71-ENT2] gave an efflux ratio at 120 min, 5 μM (MDR1) of 6, a Papp A→B at 120 min, 5 μM (MDR1) of 5.78 ×10⁻⁶ cm/s and a Papp B→A at 120 min, 5 μM (MDR1) of 33.1 ×10⁻⁶ cm/s. The “MDCK-MDR1: % Recov A-B” value [1] was 50%, the “MDCK-MDR1: % Recov B-A” value [1] was 67% and the EC50 (mHTT protein) was 0.016 to 0.05 µM.
With `Cc1nocc1-c1ccc(-c2ccc(O[C@H]3C[C@@H]4CCC[C@@H](N4)[C@H]3F)nn2)c(O)c1` (single isomer, unassigned) [72-ENT1] the “MDCK-MDR1: % Recov A-B” value [1] was 74%, the “MDCK-MDR1: % Recov B-A” value [1] was 93% and the “MDCK-MDR1: Efflux” value [1] was 9. For the same compound, the “MDCK-MDR1: Papp A-B” value [1] was 5.74 10^−6, cm/s, the “MDCK-MDR1: Papp B-A” value [1] was 51 10^−6, cm/s and the EC50 (mHTT protein) was 0.101 to 0.5 µM.
`Cc1nocc1-c1ccc(-c2ccc(O[C@H]3C[C@@H]4CCC[C@@H](N4)[C@H]3F)nn2)c(O)c1` (single isomer, unassigned) [72-ENT2] gave an efflux ratio at 120 min, 5 μM (MDR1) of 7, a Papp A→B at 120 min, 5 μM (MDR1) of 4.67 ×10⁻⁶ cm/s and a Papp B→A at 120 min, 5 μM (MDR1) of 34.9 ×10⁻⁶ cm/s. The “MDCK-MDR1: % Recov A-B” value [1] was 64%, the “MDCK-MDR1: % Recov B-A” value [1] was 74% and the EC50 (mHTT protein) was 0.101 to 0.5 µM.
With `Oc1cc(-c2ccc3nncn3c2)ccc1-c1ccc(O[C@@H]2C[C@H]3CCC[C@H](N3)[C@@H]2F)nn1` (single isomer, unassigned) [73-ENT1] the efflux ratio at 120 min, 5 μM (MDR1) was 92, the Papp A→B at 120 min, 5 μM (MDR1) was 0.44 ×10⁻⁶ cm/s and the Papp B→A at 120 min, 5 μM (MDR1) was 40.9 ×10⁻⁶ cm/s. The “MDCK-MDR1: % Recov A-B” value [1] was 94%, the “MDCK-MDR1: % Recov B-A” value [1] was 85% and the EC50 (mHTT protein) was 0.101 to 0.5 µM.
`Oc1cc(-c2ccc3nncn3c2)ccc1-c1ccc(O[C@H]2C[C@@H]3CCC[C@@H](N3)[C@H]2F)nn1` (single isomer, unassigned) [73-ENT2] showed an efflux ratio at 120 min, 5 μM (MDR1) of 84, a Papp A→B at 120 min, 5 μM (MDR1) of 0.49 ×10⁻⁶ cm/s and a Papp B→A at 120 min, 5 μM (MDR1) of 41.3 ×10⁻⁶ cm/s. For the same compound, the “MDCK-MDR1: % Recov A-B” value [1] was 90%, the “MDCK-MDR1: % Recov B-A” value [1] was 87% and the EC50 (mHTT protein) was 0.101 to 0.5 µM.
`Oc1cc(-c2ccccn2)ccc1-c1ccc(O[C@@H]2C[C@H]3CCC[C@H](N3)[C@@H]2F)nn1` (single isomer, unassigned) [77-ENT1] showed an efflux ratio at 120 min, 5 μM (MDR1) of 4, a Papp A→B at 120 min, 5 μM (MDR1) of 5.64 ×10⁻⁶ cm/s and a Papp B→A at 120 min, 5 μM (MDR1) of 22.7 ×10⁻⁶ cm/s. For the same compound, the “MDCK-MDR1: % Recov A-B” value [1] was 52%, the “MDCK-MDR1: % Recov B-A” value [1] was 70% and the EC50 (mHTT protein) was 0.101 to 0.5 µM.
`Oc1cc(-c2ccccn2)ccc1-c1ccc(O[C@H]2C[C@@H]3CCC[C@@H](N3)[C@H]2F)nn1` (single isomer, unassigned) [77-ENT2] gave an efflux ratio at 120 min, 5 μM (MDR1) of 5, a Papp A→B at 120 min, 5 μM (MDR1) of 6.32 ×10⁻⁶ cm/s and a Papp B→A at 120 min, 5 μM (MDR1) of 30.2 ×10⁻⁶ cm/s. The “MDCK-MDR1: % Recov A-B” value [1] was 57%, the “MDCK-MDR1: % Recov B-A” value [1] was 79% and the EC50 (mHTT protein) was 0.101 to 0.5 µM.
